Data on 15 compounds can be found in PubChem BioAssay AID228 (DTP/NCI, 2004).

This experiment concerns BDF1 mice, Friend leukemia sc, tumor weight T/C. Kind of experiment: NCI In Vivo Anticancer Drug Screen. Data for tumor model Friend Virus Leukemia (Solid) (subcutaneous) in B6D2F1 (BDF1) mice. The settings on record: endpoint: mean tumor weight, higher = larger tumour. Here is the method:
The antitumor activity of compounds was measured in mice bearing transplantable tumors. Survival or tumor size were measured and the results are expressed as the measurement made in the treated group (T) divided by the measurement made in the vehicle treated control group (C). The tumor model used in this assay is Friend Virus Leukemia (Solid) (subcutaneous) in B6D2F1 (BDF1) mice

[1] abbreviates: dose: 3.0 mg/kg/injection, schedule: Q01DX011 (ip), vehicle: carboxymethylcellulose (CMC).
[2] abbreviates: dose: 6.25 mg/kg/injection, schedule: Q01DX011 (ip), vehicle: carboxymethylcellulose (CMC).
[3] abbreviates: dose: 7.5 mg/kg/injection, schedule: Q01DX011 (ip), vehicle: carboxymethylcellulose (CMC).
Where [4] appears, read: dose: 15.0 mg/kg/injection, schedule: Q01DX011 (ip), vehicle: carboxymethylcellulose (CMC).
Where [5] appears, read: dose: 0.25 mg/kg/injection, schedule: Q01DX011 (ip), vehicle: carboxymethylcellulose (CMC).
The mark [6] stands for this setting: dose: 0.5 mg/kg/injection, schedule: Q01DX011 (ip), vehicle: carboxymethylcellulose (CMC).
Setting [7] is: dose: 1.0 mg/kg/injection, schedule: Q01DX011 (ip), vehicle: carboxymethylcellulose (CMC).
[8] abbreviates: dose: 7.0 mg/kg/injection, schedule: Q01DX011 (ip), vehicle: carboxymethylcellulose (CMC).

Where “and” joins values, the source holds several entries; their conditions need not be identical. Equal values may be shown once. Inconclusive results are not listed.

As for `O=P1(N(CCCl)CCCl)NCCCO1` (stereo unspecified), the T/C runs as follows: (dose: 0.5 mg/kg/injection, schedule: Q01DX015 (ip), vehicle: saline) 183 % of control; (dose: 1.0 mg/kg/injection, schedule: Q01DX015 (ip), vehicle: saline) 209 % of control; (dose: 1.5 mg/kg/injection, schedule: Q01DX011 (ip), vehicle: carboxymethylcellulose (CMC)) 93 % of control; (dose: 2.0 mg/kg/injection, schedule: Q01DX015 (ip), vehicle: saline) 224 % of control; under setting [1], 81 % of control; (dose: 3.0 mg/kg/injection, schedule: Q01DX015 (ip), vehicle: saline) 224 % of control. Also, the T/C was 225 % of control (dose: 4.0 mg/kg/injection, schedule: Q01DX015 (ip), vehicle: saline); 89 % of control (dose: 6.0 mg/kg/injection, schedule: Q01DX011 (ip), vehicle: carboxymethylcellulose (CMC)); 117 % of control (dose: 6.2 mg/kg/injection, schedule: Q01DX011 (ip), vehicle: saline); 28 % of control under setting [2]; 105 % of control (dose: 7.12 mg/kg/injection, schedule: Q01DX011 (ip), vehicle: saline); 101 % of control (dose: 8.0 mg/kg/injection, schedule: Q01DX011 (ip), vehicle: saline). The T/C reads like this: (dose: 12.0 mg/kg/injection, schedule: Q01DX011 (ip), vehicle: saline) 58 % of control; (dose: 12.5 mg/kg/injection, schedule: Q01DX011 (ip), vehicle: carboxymethylcellulose (CMC)) 37 % of control; (dose: 12.5 mg/kg/injection, schedule: Q01DX011 (ip), vehicle: saline) 64 % of control; (dose: 14.25 mg/kg/injection, schedule: Q01DX011 (ip), vehicle: saline) 52 % of control; (dose: 23.0 mg/kg/injection, schedule: Q01DX011 (ip), vehicle: saline) 14 % of control; (dose: 25.0 mg/kg/injection, schedule: Q01DX011 (ip), vehicle: saline) 14 % of control. Further, the T/C reads like this: (dose: 28.5 mg/kg/injection, schedule: Q01DX011 (ip), vehicle: saline) 32 % of control; (dose: 29.0 mg/kg/injection, schedule: Q01DX011 (ip), vehicle: saline) 6 % of control; (dose: 50.0 mg/kg/injection, schedule: Q01DX011 (ip), vehicle: carboxymethylcellulose (CMC)) 7 % of control and 10 % of control and 11 % of control.

In the case of `CC(Cl)CN(Cc1cc(O)c(CN(CC(C)Cl)CC(C)Cl)cc1O)CC(C)Cl` (stereo unspecified), the T/C (dose: 62.5 mg/kg/injection, schedule: Q01DX011 (ip), vehicle: carboxymethylcellulose (CMC)) is 66 % of control and the T/C (dose: 125.0 mg/kg/injection, schedule: Q01DX011 (ip), vehicle: carboxymethylcellulose (CMC)) was 44 % of control.

For `c1ccc(CSc2ncnc3nc[nH]c23)nc1`, the T/C reads like this: (dose: 2.0 mg/kg/injection, schedule: Q01DX011 (ip), vehicle: carboxymethylcellulose (CMC)) 88 % of control; (dose: 4.0 mg/kg/injection, schedule: Q01DX011 (ip), vehicle: carboxymethylcellulose (CMC)) 46 % of control; (dose: 9.0 mg/kg/injection, schedule: Q01DX011 (ip), vehicle: carboxymethylcellulose (CMC)) 33 % of control and 39 % of control; (dose: 18.0 mg/kg/injection, schedule: Q01DX011 (ip), vehicle: carboxymethylcellulose (CMC)) 3 % of control and 7 % of control; (dose: 37.0 mg/kg/injection, schedule: Q01DX011 (ip), vehicle: carboxymethylcellulose (CMC)) 6 % of control and 18 % of control.

For `Nc1ccccc1N`, the T/C is 84 % of control (dose: 25.0 mg/kg/injection, schedule: Q01DX011 (ip), vehicle: carboxymethylcellulose (CMC)); 11 % of control and 13 % of control and 18 % of control (dose: 100.0 mg/kg/injection, schedule: Q01DX011 (ip), vehicle: carboxymethylcellulose (CMC)); 10 % of control (dose: 150.0 mg/kg/injection, schedule: Q01DX011 (ip), vehicle: carboxymethylcellulose (CMC)).

As to `Clc1ccc(N2CCN(CCCN3CCN(c4cccc(Cl)c4)CC3)CC2)cc1`, the T/C was 93 % of control under setting [3]; 85 % of control under setting [4]; 62 % of control (dose: 30.0 mg/kg/injection, schedule: Q01DX011 (ip), vehicle: carboxymethylcellulose (CMC)).

On to `O=NN1CCN(N=O)CC1`, for which the T/C reads like this: (dose: 8.3 mg/kg/injection, schedule: Q01DX011 (ip), vehicle: carboxymethylcellulose (CMC)) 94 % of control; (dose: 16.7 mg/kg/injection, schedule: Q01DX011 (ip), vehicle: carboxymethylcellulose (CMC)) 120 % of control; (dose: 23.5 mg/kg/injection, schedule: Q01DX011 (ip), vehicle: carboxymethylcellulose (CMC)) 95 % of control; (dose: 26.0 mg/kg/injection, schedule: Q01DX011 (ip), vehicle: carboxymethylcellulose (CMC)) 85 % of control.

On to `C[C@]12CCC(=O)C=C1CC[C@@H]1[C@@H]2[C@@H](O)C[C@@]2(C)[C@H]1CC[C@]2(O)C(=O)COC(=O)c1ccc([N+](=O)[O-])cc1Cl`, for which the T/C is 69 % of control (dose: 50.0 mg/kg/injection, schedule: Q01DX011 (sc), vehicle: steriod suspending solution); 58 % of control (dose: 100.0 mg/kg/injection, schedule: Q01DX011 (sc), vehicle: steriod suspending solution); 55 % of control (dose: 200.0 mg/kg/injection, schedule: Q01DX011 (sc), vehicle: steriod suspending solution); 35 % of control (dose: 400.0 mg/kg/injection, schedule: Q01DX011 (sc), vehicle: steriod suspending solution).

Turning to `CCC1/C=C/C=C/CC(C)C(O)C(C)(O)C(=O)C(C)C(O)C(C)C(=O)C(C)C(O)C(C)/C=C/C(=O)OC2C(C)C(CC1)OC1(OC(CC(C)O)C(C)CC1=O)C2C` (stereo unspecified) (tested in a mixture with another compound), the T/C reads like this: (dose: 1.56 mg/kg/injection, schedule: Q01DX011 (ip), vehicle: carboxymethylcellulose (CMC)) 54 % of control; (dose: 3.12 mg/kg/injection, schedule: Q01DX011 (ip), vehicle: carboxymethylcellulose (CMC)) 64 % of control; under setting [2], 46 % of control.

Consider `O=C(O)CCCc1ccc(N(CCCl)CCCl)cc1`, for which the T/C was 93 % of control (dose: 1.87 mg/kg/injection, schedule: Q01DX011 (ip), vehicle: carboxymethylcellulose (CMC)); 76 % of control and 91 % of control under setting [3].

As to `CNCc1ccccc1`, the T/C reads like this: (dose: 43.5 mg/kg/injection, schedule: Q01DX011 (ip), vehicle: saline) 110 % of control; (dose: 87.0 mg/kg/injection, schedule: Q01DX011 (ip), vehicle: saline) 100 % of control.

On to `CC(=O)O[C@]1(C(C)=O)CC[C@H]2[C@@H]3C[C@H](C)C4=CC(=O)C=C[C@]4(C)[C@@]3(F)[C@@H](O)C[C@@]21C`, for which the T/C is, setting by setting: (dose: 25.0 mg/kg/injection, schedule: Q01DX011 (sc), vehicle: steriod suspending solution) 35 % of control; (dose: 37.5 mg/kg/injection, schedule: Q01DX011 (sc), vehicle: steriod suspending solution) 34 % of control; (dose: 300.0 mg/kg/injection, schedule: Q01DX011 (sc), vehicle: steriod suspending solution) 11 % of control.

`Cn1cnc([N+](=O)[O-])c1Sc1nc(N)nc2c1ncn2C1OC(CO)C(O)C1O` (stereo unspecified): the T/C reads like this: under setting [5], 73 % of control; under setting [6], 61 % of control; under setting [7], 31 % of control and 32 % of control; under setting [1], 10 % of control and 24 % of control; under setting [8], 5 % of control.

In the case of `C[n+]1c(-c2ccccc2)c2cc(N)ccc2c2ccccc21`, the T/C runs as follows: (dose: 4.4 mg/kg/injection, schedule: Q01DX011 (ip), vehicle: carboxymethylcellulose (CMC)) 103 % of control; (dose: 6.6 mg/kg/injection, schedule: Q01DX011 (ip), vehicle: carboxymethylcellulose (CMC)) 117 % of control; (dose: 10.0 mg/kg/injection, schedule: Q01DX011 (ip), vehicle: carboxymethylcellulose (CMC)) 53 % of control; under setting [4], 89 % of control.

Take `Cc1cc2nc3c(=O)[nH]c(=O)nc-3n(CCOC(=O)CCC(=O)O)c2cc1C`: the T/C reads like this: (dose: 42.0 mg/kg/injection, schedule: Q01DX011 (ip), vehicle: carboxymethylcellulose (CMC)) 96 % of control; (dose: 84.0 mg/kg/injection, schedule: Q01DX011 (ip), vehicle: carboxymethylcellulose (CMC)) 108 % of control; (dose: 168.0 mg/kg/injection, schedule: Q01DX011 (ip), vehicle: carboxymethylcellulose (CMC)) 83 % of control; (dose: 236.0 mg/kg/injection, schedule: Q01DX011 (ip), vehicle: carboxymethylcellulose (CMC)) 59 % of control.

`CCCCn1cnc2c(=S)nc(N)[nH]c21`: the T/C runs as follows: under setting [5], 87 % of control; under setting [6], 53 % of control; under setting [7], 32 % of control and 40 % of control; under setting [1], 6 % of control and 7 % of control; under setting [8], 12 % of control; under setting [4], 9 % of control.
